From article PMC3139667, “A Screen against Leishmania Intracellular Amastigotes: Comparison to a Promastigote Screen and Identification of a Host Cell-Specific Hit” (PLoS Neglected Tropical Diseases, 2011)
“Also recorded” adds a separate entry of the source. Read-outs that look alike come from different tables or passages of the source.

Columns and labels:
[1] = tested on: L. donovani promastigotes; assay: Promastigote high-throughput ATP-bioluminescence assay; format: cell-based, Leishmania donovani; conditions: for GI50: read-out: GI50 Promastigote
Experimental: L. donovani promastigotes from an exponentially growing culture were diluted to 10^6/ml in RPMI containing 10% FBS and 10% BHT. The diluted culture (99 µl/well) was dispensed in sterile 96-well flat white opaque assay plates (Greiner Bio-One) using a WellMate multichannel dispenser (Matrix). 1 µl of 1 mM test compound dissolved in DMSO was added to the plates for a final concentration of 10 µM compound and 1% DMSO. Amphotericin B was added as a positive control (final concentration 2 µM, 1% DMSO) and as a negative control, 1 µl DMSO was added (1% final concentration). Compounds and controls were added to the assay plate with the robotic dispenser Biomek FXp liquid handler (Beckman Coulter). Promastigotes were incubated with the compounds for 72 h at 27°C. The parasites were then lysed by adding 50 µl of CellTiter-Glo (Promega) and placed on an orbital shaker for 5 min at room temperature. After lysis, the resulting ATP-bioluminescence was measured using the Analyst HT plate reader (Molecular Devices). Percentage inhibition of parasite growth was calculated for each well as [1-(RLUx-RLU^+)/(RLU^--RLU^+)]*100 where RLUx, RLU^+ and RLU^- are respectively the Relative Light Units for each well, positive (amphotericin B) and negative (DMSO) controls. A screening window coefficient, denoted Z' factor, was used to evaluate the performance of the assay. The Z' factor, calculated as 1-(3σc++3σc−)/(µc+−µc−) where σc+, σc−, µc+ and µc− are respectively the standard deviation and mean values of positive and negative controls, is reflective of the assay signal dynamic range and the data variation associated with signal measurement. […] GI50 curve fitting was carried out using GraphPad Prism 4 Software (GraphPad Software Inc., San Diego, CA).

[2] = tested on: L. donovani intracellular amastigotes; assay: Intracellular amastigote high-throughput image-based assay in infected THP-1 macrophages; format: cell-based, Leishmania donovani; conditions: for GI50: read-out: GI50 Intracellular amastigote
Experimental: (§1) Sterile, black, 96-well, clear bottom plates (Greiner Bio-One) were seeded with exponentially growing THP-1 (5×10^5cells/ml). THP-1 were treated with 0.1 µM phorbol myristate acetate (PMA, Sigma) at 37°C for 48 h to achieve differentiation into adherent, non-dividing macrophages. Maturation of THP-1 cells towards monocyte-macrophage like cells is essential to avoid parasitized cells being overgrown by replicating cells. After activation by PMA, cells were washed and incubated with complete RPMI medium containing stationary phase L. donovani promastigotes at a macrophage/promastigote ratio of 1/15. After 4 h incubation at 37°C, non-internalized promastigotes were removed by 2–3 successive washes with RPMI containing 5% FBS and 5% horse serum. Test compounds (10 µM), positive control (2 µM amphotericin B) or negative control (1% DMSO) were then added to the cultures using a Biomek FXp liquid handler (Beckman Coulter). Cultures were incubated at 37°C for 72 h. Cells were then washed with phosphate-buffered saline (PBS), fixed for 30 minutes with 4% formaldehyde, rinsed again with PBS, stained for 2 h with 4′,6′-diamidino-2-phenylindole (DAPI 300 nM) and finally washed with PBS. […] Images were acquired with an INCell Analyzer 1000 automated epi-fluorescent microscope (G.E. Healthcare). The excitation and emission filters used to detect DAPI were 350/50 nm and 460/40 nm respectively. Eight image fields were acquired per well with a 20X objective. The proprietary INCell Developer Toolbox 1.7 software was used for image analysis. Segmentation parameters were set to identify host nuclei with a minimum area of 250 µm^2 and parasite kinetoplast with an average area of 1 µm^2. The intensity of parasite nucleus was too low to be detected with a 20X objective. A border, representing the boundary of the cell, was drawn around the nucleus (total area between 700 and 2000 µm^2). Only parasites found within this area were included in the calculation to eliminate extracellular parasites. False positive parasite detection in the nucleus was also excluded from the calculation. Host cell nuclei and parasite kinetoplasts were counted and the ratio of parasites DNA to host nuclei was selected as the measurement output. Percentage inhibition of parasite growth was calculated as [1-(P/hcx-P/hc^+)/(P/hc^−-P/hc^+)]*100 where P/hcx, P/hc^+ and P/hc^− are parasite per host cell ratio for every well, positive control (amphotericin B) and negative control (DMSO) respectively. Calculation of Z' factor and GI50 curve fitting were carried out as described above.

[3] = tested on: L. donovani axenic amastigotes; assay: Dose response study against axenic amastigotes (CellTiter-Glo); format: cell-based, Leishmania donovani; conditions: for GI50: read-out: GI50 Axenic amastigote
Experimental: L. donovani axenic amastigotes (5×10^5 cells/ml in axenic amastigote media) were dispensed in sterile 96-well flat white opaque assay plates (Greiner Bio-One) using a WellMate multichannel dispenser (Matrix). […] 1% DMSO and amphotericin B (2 µM, 1% DMSO final concentration) were added as negative and positive controls respectively. Axenic amastigotes were incubated with the compounds for 72 h at 37°C with 5% CO2. Parasite viability was then measured using CellTiter-Glo as described above.

THP-1 = assay: Host cell toxicity: THP-1 host nuclei counts in the image-based assay; conditions: for Selectivity: ratio between parasite GI50 and THP-1 GI50; for GI50: read-out: GI50 THP-1
Experimental: as §1

[4] = PMA-differentiated infected THP-1, 72 h, host nuclei count
[5] = Leishmania donovani, 72 h at 27°C, CellTiter-Glo
[6] = Leishmania donovani, THP-1, 72 h, L. donovani in THP-1, 72 h, parasites per host cell
[7] = ratio between promastigote GI50 and intracellular amastigote GI50, >2 more active against intracellular amastigote, <0.4 more active against promastigotes
[8] = Leishmania donovani, 72 h at 37°C, CellTiter-Glo
[9] = Leishmania donovani, THP-1, 72 h
[10] = L. donovani in THP-1, 72 h, parasites per host cell

SMILES	Selectivity (THP-1)	GI50 [1, 5] [µM]	GI50 [2, 6] [µM]	Specificity [2, 7]	GI50 [3, 8] [µM]	GI50 (THP-1; Homo sapiens, THP-1, 72 h) [µM]	also measured
CC(C)(C)c1ccc(S(=O)(=O)/C=C/C#N)cc1 [BAY 11–7085]	32.46						GI50 ([1]; 72 h at 27°C, CellTiter-Glo): 1.54 µM; Specificity [2]: 0.06; GI50 ([3]; 72 h at 37°C, CellTiter-Glo): 0.42 µM; GI50 (THP-1; [4]): > 50 µM
CCN(CC)c1ccc(C(=C2C=CC(=[N+](CC)CC)C=C2)c2ccccc2)cc1 [Brilliant green]	15.88	0.1	6	0.02	0.03	1.64	
COc1ccccc1OCCNCC(O)COc1cccc2[nH]c3ccccc3c12 (centres unmarked) [Carvedilol]	6.07	12.4	6.16	2.01	> 16.5	37.5	
COCc1c(C(C)C)nc(C(C)C)c(/C=C/[C@@H](O)C[C@@H](O)CC(=O)O)c1-c1ccc(F)cc1 [Cerivastatin]	0.66	10.8	> 50	0.22	0.02	7.15	
[H]/N=C(\N/C(=N/[H])NCCCCCCNC(=N)NC(=N)Nc1ccc(Cl)cc1)Nc1ccc(Cl)cc1 [Chlorhexidine]	9.27	2.81	1.79	1.56	4.78	> 16.5	
Cc1cc(C2CCCCC2)n(O)c(=O)c1 [Ciclopirox]	1.90	15.2	22	0.69	> 50	42	
Clc1ccccc1C(c1ccccc1)(c1ccccc1)n1ccnc1 [Clotrimazole]	15.32	12.9	1.08	11.92	4.56	> 16.5	
C[C@@H]1C[C@@H]([C@H](O)CC2CC(=O)NC(=O)C2)C(=O)[C@@H](C)C1 [Cycloheximide]	18.13			2.55		21	GI50 ([1]; Leishmania donovani, 72 h): 2.95 µM; GI50 [2, 9]: 1.15 µM; GI50 ([3]; Leishmania donovani, 72 h): 0.39 µM
COc1cc2nc(N3CCN(C(=O)C4COc5ccccc5O4)CC3)nc(N)c2cc1OC (centres unmarked) [Doxazocin]	3.32			1.69			GI50 ([1]; 72 h at 27°C, CellTiter-Glo): 8.45 µM; GI50 [2, 10]: 5 µM; GI50 ([3]; 72 h at 37°C, CellTiter-Glo): > 16.5 µM; GI50 (THP-1; [4]): > 16.5 µM
CC[C@H]1CN2CCc3cc(OC)c(OC)cc3[C@@H]2C[C@@H]1C[C@H]1NCCc2cc(OC)c(OC)cc21 [Emetine]		0.03	0.082		1.62	1.28	
Clc1cc(Cl)c(OCC#CI)cc1Cl [Haloprogin]	19.04	1.05	6	0.17	0.56	20	
COC(=O)C[C@](O)(CCC(C)(C)O)C(=O)O[C@@H]1C(OC)=C[C@]23CCCN2CCc2cc4c(cc2[C@H]13)OCO4 [Harringtonin]	0.02						GI50 ([1]; 72 h at 27°C, CellTiter-Glo): 16.6 µM; Specificity [2]: 3.39; GI50 [2, 10]: 4.89 µM; GI50 ([3]; 72 h at 37°C, CellTiter-Glo): 10.6 µM; GI50 (THP-1; [4]): 0.1 µM
Oc1c(Cl)cc(Cl)c(Cl)c1Cc1c(O)c(Cl)cc(Cl)c1Cl [Hexachlorophene]				3.49		16.5	GI50 ([1]; Leishmania donovani, 72 h): 15.9 µM; GI50 [2, 9]: 4.54 µM; GI50 ([3]; Leishmania donovani, 72 h): 14.8 µM
CCN(CCCCOC(=O)c1ccc(OC)c(OC)c1)C(C)Cc1ccc(OC)cc1 (centres unmarked) [Mebeverine]	5.88	6.91	8.5	0.81	2.36	> 50	
CN1C[C@H](CNC(=O)OCc2ccccc2)C[C@@H]2c3cccc4c3c(cn4C)C[C@H]21 [Metergoline]	47.22	15.1	0.78	19.17	> 50	37.1	
Clc1ccc(COC(Cn2ccnc2)c2ccc(Cl)cc2Cl)c(Cl)c1 (centres unmarked) [Miconazole]	1.07	7.48	15.4	0.48	4.73	> 16.5	
C=CCN1CC[C@]23c4c5ccc(O)c4O[C@H]2/C(=N/N=C2\CC[C@@]4(O)[C@H]6Cc7ccc(O)c8c7[C@@]4(CCN6CC=C)[C@H]2O8)CC[C@@]3(O)[C@H]1C5 [Naloxonazine]	9.68	> 50	3.45		> 50	33.8	Activity against promastigotes (in words) ([1]; dose response, up to 50 µM): no activity; also recorded: completely inactive; Primary screen against intracellular amastigotes, hit selection [2]: complete specificity for the intracellular amastigote stage; Specificity [2]: 14.32; GI50 [2, 10]: 3.49 µM; GI90 intracellular amastigote ([2]; curative concentration): 12.5 µM; Activity against axenic amastigotes (in words) ([3]; dose response, up to 50 µM): no activity; GI90 THP-1 (THP-1): 50 µM
